Experimental data reported in ChEMBL document CHEMBL5715260, “Selectivity Literature for EUbOPEN Chemogenomic Library” (2024).
Where a SMILES comes first, the peptide text is derived from it. [ ]: non-standard residue; d: D form. The star is where a group is joined. Benzoyl(4-OPh) = O=C(c1ccc(Oc2ccccc2)cc1)*; Lys(Et2) = CCN(CC)CCCC[C@H](N)C(=O)O; d(aIle) = CC[C@H](C)[C@@H](N)C(=O)O; Gly(cPent) = N[C@H](C(=O)O)C1CCCC1; NH(propargyl) = C#CCN*

Key:
[1] = biological target: cGMP-inhibited 3',5'-cyclic phosphodiesterase 3B (Homo sapiens, UniProt Q13370); assay: Selectivity interaction (Enzymatic assay) EUB0002598a PDE3B; set-up: recommended concentration 1 uM
[2] = biological target: T1, Mu-type opioid receptor (Homo sapiens, UniProt P35372); assay: (§1) Selectivity interaction (Panel of neurotransmitter receptors, receptors, ion channels/regulatory sites) EUB0002781aCl OPRM1; set-up: recommended concentration 1 uM
T1 sequence (P35372 whole entry): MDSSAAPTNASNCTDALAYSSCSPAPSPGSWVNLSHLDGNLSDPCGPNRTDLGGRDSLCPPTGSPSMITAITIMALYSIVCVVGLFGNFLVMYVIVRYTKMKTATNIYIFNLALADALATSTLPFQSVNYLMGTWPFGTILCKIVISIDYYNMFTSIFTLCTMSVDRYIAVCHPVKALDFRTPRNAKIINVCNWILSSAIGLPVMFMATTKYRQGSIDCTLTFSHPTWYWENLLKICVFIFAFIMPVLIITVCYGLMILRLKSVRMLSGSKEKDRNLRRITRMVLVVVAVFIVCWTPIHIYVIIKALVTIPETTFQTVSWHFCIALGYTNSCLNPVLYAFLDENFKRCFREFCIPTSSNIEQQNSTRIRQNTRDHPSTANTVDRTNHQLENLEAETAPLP

[3] = biological target: T2, Delta-type opioid receptor (Homo sapiens, UniProt P41143); assay: (§2) Selectivity interaction (Panel of neurotransmitter receptors, receptors, ion channels/regulatory sites) EUB0002781aCl OPRD1; set-up: recommended concentration 1 uM
T2 sequence (P41143 whole entry): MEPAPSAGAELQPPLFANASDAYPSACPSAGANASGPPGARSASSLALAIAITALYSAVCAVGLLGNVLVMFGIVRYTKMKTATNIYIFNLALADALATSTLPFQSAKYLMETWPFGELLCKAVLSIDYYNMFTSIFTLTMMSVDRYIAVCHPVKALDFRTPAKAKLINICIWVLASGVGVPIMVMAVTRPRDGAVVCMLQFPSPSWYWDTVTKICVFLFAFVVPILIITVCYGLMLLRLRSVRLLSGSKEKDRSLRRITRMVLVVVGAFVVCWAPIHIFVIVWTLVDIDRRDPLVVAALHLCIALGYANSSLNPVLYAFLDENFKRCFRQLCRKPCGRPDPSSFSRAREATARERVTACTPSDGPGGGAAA

[4] = biological target: T1, Mu-type opioid receptor; assay: as §1; set-up: recommended concentration 1 uM; remark: listed apart in the source
[5] = biological target: Kappa-type opioid receptor (Homo sapiens, UniProt P41145); assay: Selectivity interaction (Panel of neurotransmitter receptors, receptors, ion channels/regulatory sites) EUB0002781aCl OPRK1; set-up: recommended concentration 1 uM
[6] = biological target: Voltage-dependent L-type calcium channel subunit alpha-1S (Homo sapiens) (UniProt Q13698); assay: Selectivity interaction (Panel of neurotransmitter receptors, receptors, ion channels/regulatory sites) EUB0002781aCl CACNA1S; set-up: recommended concentration 1 uM; conditions: at 10 µM
[7] = biological target: T2, Delta-type opioid receptor; assay: as §2; set-up: recommended concentration 1 uM; remark: listed apart in the source
[8] = biological target: T3, Histone deacetylase 8 (Homo sapiens, UniProt Q9BY41)
T3 sequence (Q9BY41 whole entry): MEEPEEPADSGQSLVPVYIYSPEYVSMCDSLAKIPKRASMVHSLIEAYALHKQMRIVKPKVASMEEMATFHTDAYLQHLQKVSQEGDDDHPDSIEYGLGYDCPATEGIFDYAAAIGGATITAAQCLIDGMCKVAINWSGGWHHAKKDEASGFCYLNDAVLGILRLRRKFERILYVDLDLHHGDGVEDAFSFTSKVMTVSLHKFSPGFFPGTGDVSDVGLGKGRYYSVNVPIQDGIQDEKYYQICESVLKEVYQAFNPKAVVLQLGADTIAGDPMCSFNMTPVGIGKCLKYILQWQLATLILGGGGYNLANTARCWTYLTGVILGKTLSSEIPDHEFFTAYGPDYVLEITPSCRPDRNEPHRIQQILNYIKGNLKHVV

[9] = biological target: T3, Histone deacetylase 8; remark: listed apart in the source
[10] = biological target: T3, Histone deacetylase 8; remark: listed apart in the source
[11] = biological target: P2X purinoceptor 3 (Homo sapiens, UniProt P56373); assay: Selectivity interaction (Patch-clamp recording assay) EUB0002673aCl P2RX3; set-up: recommended concentration 1 uM
[12] = biological target: T4, Chromobox protein homolog 2 (Homo sapiens, UniProt Q14781); assay: (§3) Selectivity interaction (Fluorescence polarisation assay (chromodomain family)) EUB0002326a CBX2; set-up: recommended concentration 1 uM
T4 sequence (Q14781 whole entry): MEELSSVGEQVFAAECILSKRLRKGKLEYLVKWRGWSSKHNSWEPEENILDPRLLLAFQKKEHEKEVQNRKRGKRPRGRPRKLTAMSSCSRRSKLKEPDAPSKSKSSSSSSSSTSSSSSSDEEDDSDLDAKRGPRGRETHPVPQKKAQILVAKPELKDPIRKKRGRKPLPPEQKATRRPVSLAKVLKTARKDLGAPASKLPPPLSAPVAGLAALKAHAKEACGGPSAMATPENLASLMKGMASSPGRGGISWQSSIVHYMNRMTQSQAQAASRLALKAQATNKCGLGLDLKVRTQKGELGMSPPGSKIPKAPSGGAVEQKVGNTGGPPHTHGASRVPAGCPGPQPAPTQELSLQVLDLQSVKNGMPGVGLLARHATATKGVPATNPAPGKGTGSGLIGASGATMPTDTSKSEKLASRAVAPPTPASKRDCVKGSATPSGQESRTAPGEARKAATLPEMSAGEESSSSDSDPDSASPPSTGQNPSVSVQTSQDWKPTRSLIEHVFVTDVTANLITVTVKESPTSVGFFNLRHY

[13] = biological target: Chromobox protein homolog 7 (Homo sapiens, UniProt O95931); assay: Selectivity interaction (Fluorescence polarisation assay (chromodomain family)) EUB0002326a CBX7; set-up: recommended concentration 1 uM
Chain of Chromobox protein homolog 7 (O95931 whole entry): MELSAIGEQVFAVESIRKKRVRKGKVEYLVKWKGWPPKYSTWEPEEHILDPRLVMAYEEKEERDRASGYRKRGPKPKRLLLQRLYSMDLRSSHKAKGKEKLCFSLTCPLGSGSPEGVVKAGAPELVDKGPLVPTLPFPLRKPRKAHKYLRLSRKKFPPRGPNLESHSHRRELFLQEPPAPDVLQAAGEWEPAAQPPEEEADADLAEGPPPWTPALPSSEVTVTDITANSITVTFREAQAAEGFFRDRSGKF

[14] = biological target: T4, Chromobox protein homolog 2; assay: as §3; set-up: recommended concentration 1 uM; remark: listed apart in the source
[15] = biological target: Muscarinic acetylcholine receptor M1 (Homo sapiens, UniProt P11229); assay: Selectivity interaction (Membrane binding assay) EUB0002488aCl CHRM1; set-up: recommended concentration 1 uM
[16] = biological target: T5, Bromodomain-containing protein 9 (Homo sapiens, UniProt Q9H8M2); assay: Selectivity interaction (BROMOscan (Eurofins)) EUB0002282a BRD9; set-up: recommended concentration 1 uM
T5 sequence (Q9H8M2 whole entry): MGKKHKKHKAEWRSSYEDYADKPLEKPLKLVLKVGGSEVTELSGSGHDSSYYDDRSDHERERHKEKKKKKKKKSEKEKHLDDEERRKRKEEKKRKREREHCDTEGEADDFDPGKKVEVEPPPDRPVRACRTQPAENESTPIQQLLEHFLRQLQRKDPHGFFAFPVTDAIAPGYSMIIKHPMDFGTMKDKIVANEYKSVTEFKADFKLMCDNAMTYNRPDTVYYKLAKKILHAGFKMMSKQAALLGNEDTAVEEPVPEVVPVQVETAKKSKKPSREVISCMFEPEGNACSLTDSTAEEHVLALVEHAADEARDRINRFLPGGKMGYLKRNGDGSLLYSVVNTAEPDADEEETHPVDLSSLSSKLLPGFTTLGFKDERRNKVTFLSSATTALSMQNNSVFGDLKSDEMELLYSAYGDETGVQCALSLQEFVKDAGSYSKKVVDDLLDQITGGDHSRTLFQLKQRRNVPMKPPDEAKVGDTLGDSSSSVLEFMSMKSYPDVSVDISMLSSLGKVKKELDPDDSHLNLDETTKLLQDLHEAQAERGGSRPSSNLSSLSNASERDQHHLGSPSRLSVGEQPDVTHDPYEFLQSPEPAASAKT

[17] = biological target: Chromatin remodeling regulator CECR2 (Homo sapiens, UniProt Q9BXF3); assay: Selectivity interaction (BROMOscan (Eurofins)) EUB0002282a CECR2; set-up: recommended concentration 1 uM
[18] = biological target: Transcription initiation factor TFIID subunit 1 (Homo sapiens, UniProt P21675); assay: Selectivity interaction (BROMOscan (Eurofins)) EUB0002282a TAF1; set-up: recommended concentration 1 uM
[19] = biological target: Bromodomain adjacent to zinc finger domain protein 2A (Homo sapiens, UniProt Q9UIF9); assay: Selectivity interaction (BROMOscan (Eurofins)) EUB0002282a BAZ2A; set-up: recommended concentration 1 uM
[20] = biological target: CREB-binding protein (Homo sapiens, UniProt Q92793); assay: Selectivity interaction (BROMOscan (Eurofins)) EUB0002282a CREBBP; set-up: recommended concentration 1 uM
[21] = biological target: Bromodomain testis-specific protein (Homo sapiens, UniProt Q58F21); assay: Selectivity interaction (BROMOscan (Eurofins)) EUB0002282a BRDT; set-up: recommended concentration 1 uM
[22] = biological target: T6, Histone acetyltransferase p300 (Homo sapiens, UniProt Q09472); assay: Selectivity interaction (BROMOscan (Eurofins)) EUB0002282a EP300; set-up: recommended concentration 1 uM
T6 sequence (Q09472 whole entry, the tested form may be a part): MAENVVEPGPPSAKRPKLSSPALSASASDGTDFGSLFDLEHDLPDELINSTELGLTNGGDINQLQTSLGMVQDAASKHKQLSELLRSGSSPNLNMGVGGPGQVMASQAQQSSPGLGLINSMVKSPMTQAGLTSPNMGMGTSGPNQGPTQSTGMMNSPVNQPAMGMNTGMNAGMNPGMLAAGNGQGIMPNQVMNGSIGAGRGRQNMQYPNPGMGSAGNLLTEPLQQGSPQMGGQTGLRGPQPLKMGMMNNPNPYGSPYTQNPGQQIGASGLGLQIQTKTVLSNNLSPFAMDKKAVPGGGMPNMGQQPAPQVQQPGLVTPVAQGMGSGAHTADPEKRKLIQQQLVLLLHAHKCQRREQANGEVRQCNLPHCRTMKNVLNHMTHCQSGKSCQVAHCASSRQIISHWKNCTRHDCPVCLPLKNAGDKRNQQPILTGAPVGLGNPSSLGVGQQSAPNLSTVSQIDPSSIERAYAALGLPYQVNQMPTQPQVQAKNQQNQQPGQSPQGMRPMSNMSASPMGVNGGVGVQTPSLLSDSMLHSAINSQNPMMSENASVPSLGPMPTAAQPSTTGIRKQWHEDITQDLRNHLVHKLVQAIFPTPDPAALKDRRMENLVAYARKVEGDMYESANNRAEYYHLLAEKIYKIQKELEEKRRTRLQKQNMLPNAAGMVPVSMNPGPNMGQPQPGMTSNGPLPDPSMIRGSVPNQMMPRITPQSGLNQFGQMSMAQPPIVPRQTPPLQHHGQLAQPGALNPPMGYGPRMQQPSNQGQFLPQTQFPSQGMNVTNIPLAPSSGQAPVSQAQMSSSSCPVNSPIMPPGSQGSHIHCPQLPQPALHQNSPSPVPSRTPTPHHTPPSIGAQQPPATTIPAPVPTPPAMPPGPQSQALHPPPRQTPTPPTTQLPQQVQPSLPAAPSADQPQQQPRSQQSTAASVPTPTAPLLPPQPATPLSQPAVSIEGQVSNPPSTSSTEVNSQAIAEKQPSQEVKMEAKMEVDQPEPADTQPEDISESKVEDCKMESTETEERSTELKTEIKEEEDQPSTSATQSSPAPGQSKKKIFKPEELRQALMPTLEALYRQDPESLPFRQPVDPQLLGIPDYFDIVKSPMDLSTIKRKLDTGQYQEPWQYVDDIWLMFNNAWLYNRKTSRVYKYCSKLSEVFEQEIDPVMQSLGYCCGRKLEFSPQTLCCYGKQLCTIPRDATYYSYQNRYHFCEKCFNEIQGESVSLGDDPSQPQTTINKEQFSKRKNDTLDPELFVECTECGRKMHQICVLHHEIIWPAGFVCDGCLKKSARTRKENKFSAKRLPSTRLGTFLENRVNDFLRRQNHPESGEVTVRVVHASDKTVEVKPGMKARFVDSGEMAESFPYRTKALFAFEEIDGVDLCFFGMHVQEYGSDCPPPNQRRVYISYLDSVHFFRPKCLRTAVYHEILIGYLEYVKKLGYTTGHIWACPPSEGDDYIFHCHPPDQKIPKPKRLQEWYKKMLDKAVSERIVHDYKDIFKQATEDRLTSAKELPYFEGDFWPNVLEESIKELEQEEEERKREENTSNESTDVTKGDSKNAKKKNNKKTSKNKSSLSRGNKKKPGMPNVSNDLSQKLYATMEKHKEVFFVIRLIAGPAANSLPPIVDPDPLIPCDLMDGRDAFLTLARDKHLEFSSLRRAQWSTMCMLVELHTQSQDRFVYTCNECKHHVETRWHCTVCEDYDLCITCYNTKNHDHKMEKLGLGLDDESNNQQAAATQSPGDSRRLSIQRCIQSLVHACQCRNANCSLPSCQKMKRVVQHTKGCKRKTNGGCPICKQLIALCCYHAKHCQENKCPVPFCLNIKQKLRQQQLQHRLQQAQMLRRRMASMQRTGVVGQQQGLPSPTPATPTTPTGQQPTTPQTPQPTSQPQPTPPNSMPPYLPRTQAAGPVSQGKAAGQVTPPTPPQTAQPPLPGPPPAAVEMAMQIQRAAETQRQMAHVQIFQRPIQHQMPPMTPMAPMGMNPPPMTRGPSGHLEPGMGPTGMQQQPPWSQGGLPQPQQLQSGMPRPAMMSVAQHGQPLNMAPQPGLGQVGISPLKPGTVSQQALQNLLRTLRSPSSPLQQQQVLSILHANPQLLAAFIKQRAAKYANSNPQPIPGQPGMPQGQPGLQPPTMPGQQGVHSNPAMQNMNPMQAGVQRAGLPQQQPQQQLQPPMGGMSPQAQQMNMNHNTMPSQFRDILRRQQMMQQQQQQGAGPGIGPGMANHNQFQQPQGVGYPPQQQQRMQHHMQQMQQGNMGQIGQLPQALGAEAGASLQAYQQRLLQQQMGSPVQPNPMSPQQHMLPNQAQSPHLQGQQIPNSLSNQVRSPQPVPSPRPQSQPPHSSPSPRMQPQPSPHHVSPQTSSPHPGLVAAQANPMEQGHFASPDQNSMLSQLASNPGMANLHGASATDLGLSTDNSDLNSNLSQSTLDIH

[23] = biological target: Bromodomain adjacent to zinc finger domain protein 2B (Homo sapiens, UniProt Q9UIF8); assay: Selectivity interaction (BROMOscan (Eurofins)) EUB0002282a BAZ2B; set-up: recommended concentration 1 uM
[24] = biological target: Peregrin (Homo sapiens, UniProt P55201); assay: Selectivity interaction (BROMOscan (Eurofins)) EUB0002282a BRPF1; set-up: recommended concentration 1 uM
[25] = biological target: T6, Histone acetyltransferase p300; assay: (§4) Selectivity interaction (BROMOscan (DiscoverX)) EUB0002298a EP300; set-up: recommended concentration 1 uM
[26] = biological target: T6, Histone acetyltransferase p300; assay: as §4; set-up: recommended concentration 1 uM; remark: listed apart in the source
[27] = biological target: T6, Histone acetyltransferase p300; assay: as §4; set-up: recommended concentration 1 uM; remark: listed apart in the source
[28] = biological target: Cathepsin S (Homo sapiens, UniProt P25774); assay: Selectivity interaction (Enzymatic assay) EUB0002529a CTSS; set-up: recommended concentration 1 uM
[29] = biological target: Sodium-dependent dopamine transporter (Homo sapiens) (UniProt Q01959); assay: Selectivity interaction (SafetyScreen (Eurofins)) EUB0002332a SLC6A3; set-up: recommended concentration 1 uM; conditions: at 10 µM
[30] = biological target: 5-hydroxytryptamine receptor 1B (Homo sapiens) (UniProt P28222); assay: (§5) Selectivity interaction (SafetyScreen (Eurofins)) EUB0002332a HTR1B; set-up: recommended concentration 1 uM; conditions: at 10 µM
Chain of 5-hydroxytryptamine receptor 1B (Homo sapiens) (P28222 whole entry): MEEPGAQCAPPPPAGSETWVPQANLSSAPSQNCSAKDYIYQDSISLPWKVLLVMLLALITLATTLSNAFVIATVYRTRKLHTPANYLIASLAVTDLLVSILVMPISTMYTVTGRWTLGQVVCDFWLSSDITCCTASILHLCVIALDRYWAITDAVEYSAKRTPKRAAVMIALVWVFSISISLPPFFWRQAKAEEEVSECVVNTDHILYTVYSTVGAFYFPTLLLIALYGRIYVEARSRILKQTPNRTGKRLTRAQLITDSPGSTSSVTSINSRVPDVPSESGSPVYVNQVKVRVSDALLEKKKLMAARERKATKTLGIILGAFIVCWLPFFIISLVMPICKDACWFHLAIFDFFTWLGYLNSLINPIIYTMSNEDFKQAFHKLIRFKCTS

[31] = biological target: 5-hydroxytryptamine receptor 1B (Homo sapiens) (UniProt P28222); assay: as §5; set-up: recommended concentration 1 uM; conditions: at 10 µM; remark: listed apart in the source
[32] = biological target: Voltage-gated inwardly rectifying potassium channel KCNH2 (Homo sapiens, UniProt Q12809); assay: Selectivity interaction (SafetyScreen (Eurofins)) EUB0002332a KCNH2; set-up: recommended concentration 1 uM; conditions: at 10 µM
Chain of Voltage-gated inwardly rectifying potassium channel KCNH2 (Q12809 whole entry): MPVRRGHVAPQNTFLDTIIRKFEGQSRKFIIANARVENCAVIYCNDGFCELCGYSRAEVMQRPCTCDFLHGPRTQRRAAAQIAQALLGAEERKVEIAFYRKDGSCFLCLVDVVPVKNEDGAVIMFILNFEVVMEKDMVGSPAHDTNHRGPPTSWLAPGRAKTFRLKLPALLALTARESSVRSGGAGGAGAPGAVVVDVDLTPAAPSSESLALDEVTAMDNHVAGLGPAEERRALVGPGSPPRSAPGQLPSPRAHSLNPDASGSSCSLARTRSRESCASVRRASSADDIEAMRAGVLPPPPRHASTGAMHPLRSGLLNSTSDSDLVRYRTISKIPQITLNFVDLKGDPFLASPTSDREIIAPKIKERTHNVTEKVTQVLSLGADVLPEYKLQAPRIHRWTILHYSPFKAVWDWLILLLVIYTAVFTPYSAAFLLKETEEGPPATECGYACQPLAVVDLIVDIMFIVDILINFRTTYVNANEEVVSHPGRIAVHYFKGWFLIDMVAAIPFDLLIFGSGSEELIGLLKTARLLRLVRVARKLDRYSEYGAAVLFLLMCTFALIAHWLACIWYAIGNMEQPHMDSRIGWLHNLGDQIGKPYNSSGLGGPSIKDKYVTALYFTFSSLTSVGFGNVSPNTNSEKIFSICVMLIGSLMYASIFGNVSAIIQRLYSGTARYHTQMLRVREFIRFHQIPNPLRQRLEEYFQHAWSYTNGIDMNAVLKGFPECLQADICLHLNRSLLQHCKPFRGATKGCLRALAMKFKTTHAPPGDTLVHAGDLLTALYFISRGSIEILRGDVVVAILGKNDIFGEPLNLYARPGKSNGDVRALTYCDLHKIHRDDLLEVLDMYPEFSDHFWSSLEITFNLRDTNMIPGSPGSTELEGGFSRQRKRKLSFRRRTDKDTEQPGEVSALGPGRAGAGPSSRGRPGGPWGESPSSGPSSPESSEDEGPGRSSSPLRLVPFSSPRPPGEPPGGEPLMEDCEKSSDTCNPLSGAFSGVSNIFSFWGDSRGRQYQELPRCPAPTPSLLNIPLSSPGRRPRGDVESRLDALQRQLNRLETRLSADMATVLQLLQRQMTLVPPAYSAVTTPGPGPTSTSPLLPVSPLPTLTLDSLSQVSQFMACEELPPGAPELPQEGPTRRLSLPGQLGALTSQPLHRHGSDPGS

[33] = biological target: Oxidized purine nucleoside triphosphate hydrolase (Homo sapiens) (UniProt P36639); assay: Selectivity interaction (Nudix + Nucleotide phosphohydrolase panel (enzymatic assay)) EUB0002332a NUDT1; set-up: recommended concentration 1 uM; conditions: at 100 µM
[34] = biological target: Sodium-dependent noradrenaline transporter (Homo sapiens) (UniProt P23975); assay: Selectivity interaction (SafetyScreen (Eurofins)) EUB0002332a SLC6A2; set-up: recommended concentration 1 uM; conditions: at 10 µM

CC(C)C(=O)c1c(C(C)C)nn2ccccc12 [IBUDILAST]
IC50 [1]: 2700 nM

N=C(N)NC(=O)c1cnn(-c2cccc3ncccc23)c1C1CC1
Ki [2]: 60 nM | Ki [3]: 213 nM | Ki [4]: 213 nM | Ki [5]: 213 nM | inhibition [6]: 62% | Ki [7]: 238 nM

CN(C)Cc1ccc(S(=O)(=O)n2ccc(/C=C/C(=O)NO)c2)cc1
IC50 [8]: 877 nM | IC50 [9]: 877 nM | IC50 [10]: 877 nM

CCCCOc1c(OC)cc(C(=O)NCC2(N(C)C)CCOCC2)cc1OC
IC50 [11]: 870 nM

C#CCNC(=O)[C@H](CO)NC(=O)[C@H](CCCCN(CC)CC)NC(=O)[C@H](NC(=O)[C@@H](NC(=O)c1ccc(Oc2ccccc2)cc1)C1CCCC1)[C@@H](C)CC ({Benzoyl(4-OPh)}-[Gly(cPent)][d(aIle)][Lys(Et2)]S-{NH(propargyl)})
Kd [12]: 4.6 µM | Kd [13]: > 16 µM | Kd [14]: 4.6 µM

CN1[C@@H]2CC[C@H]1C[C@@H](OC(c1ccc(F)cc1)c1ccc(F)cc1)C2
Ki [15]: 11.6 nM

Cc1cc(-c2ccc3nc(C4CCOCC4)n(CCOC(F)(F)F)c3c2)cn(C)c1=O
Kd [16]: 64 nM | Kd [17]: 38 nM | Kd [18]: 110 nM | Kd [19]: 140 nM | Kd [20]: 23 nM | Kd [21]: 25 nM | Kd [22]: 25 nM | Kd [23]: 190 nM | Kd [24]: 100 nM

CCCOc1ccc(CCc2nc3cc(-c4c(C)noc4C)ccc3n2CCN2CCOCC2)cc1
IC50 [25]: 363 nM | IC50 [26]: 363 nM | IC50 [27]: 363 nM

Cn1nc(C(C)(C)C)cc1C(=O)NC(Cc1cccc(Cl)c1)C(=O)NCC#N (centres undefined)
Ki [28]: 850 nM

Cn1c(=O)c2c(nc(N3CCNCC3)n2Cc2nnc(-c3ccc(Cl)c(Cl)c3)o2)n(C)c1=O
Inhibition of control [29]: 50% | Inhibition of control [30]: > 50% | Inhibition of control [31]: > 50% | Inhibition of control [32]: > 50% | Enzyme activity [33]: < 20% | Inhibition of control [34]: > 50%
